The target in test [1] is T1, mGluR5 (Rattus norvegicus, UniProt P31424). It is filed as cell-based.
Test [2] concerns the target T1, mGluR5. Put plainly: PI hydrolysis in rat hippocampal slices.

Molecules are shown by their SMILES. Like-named read-outs stand apart in the source and are kept apart here.

T1 sequence (P31424 21-1203): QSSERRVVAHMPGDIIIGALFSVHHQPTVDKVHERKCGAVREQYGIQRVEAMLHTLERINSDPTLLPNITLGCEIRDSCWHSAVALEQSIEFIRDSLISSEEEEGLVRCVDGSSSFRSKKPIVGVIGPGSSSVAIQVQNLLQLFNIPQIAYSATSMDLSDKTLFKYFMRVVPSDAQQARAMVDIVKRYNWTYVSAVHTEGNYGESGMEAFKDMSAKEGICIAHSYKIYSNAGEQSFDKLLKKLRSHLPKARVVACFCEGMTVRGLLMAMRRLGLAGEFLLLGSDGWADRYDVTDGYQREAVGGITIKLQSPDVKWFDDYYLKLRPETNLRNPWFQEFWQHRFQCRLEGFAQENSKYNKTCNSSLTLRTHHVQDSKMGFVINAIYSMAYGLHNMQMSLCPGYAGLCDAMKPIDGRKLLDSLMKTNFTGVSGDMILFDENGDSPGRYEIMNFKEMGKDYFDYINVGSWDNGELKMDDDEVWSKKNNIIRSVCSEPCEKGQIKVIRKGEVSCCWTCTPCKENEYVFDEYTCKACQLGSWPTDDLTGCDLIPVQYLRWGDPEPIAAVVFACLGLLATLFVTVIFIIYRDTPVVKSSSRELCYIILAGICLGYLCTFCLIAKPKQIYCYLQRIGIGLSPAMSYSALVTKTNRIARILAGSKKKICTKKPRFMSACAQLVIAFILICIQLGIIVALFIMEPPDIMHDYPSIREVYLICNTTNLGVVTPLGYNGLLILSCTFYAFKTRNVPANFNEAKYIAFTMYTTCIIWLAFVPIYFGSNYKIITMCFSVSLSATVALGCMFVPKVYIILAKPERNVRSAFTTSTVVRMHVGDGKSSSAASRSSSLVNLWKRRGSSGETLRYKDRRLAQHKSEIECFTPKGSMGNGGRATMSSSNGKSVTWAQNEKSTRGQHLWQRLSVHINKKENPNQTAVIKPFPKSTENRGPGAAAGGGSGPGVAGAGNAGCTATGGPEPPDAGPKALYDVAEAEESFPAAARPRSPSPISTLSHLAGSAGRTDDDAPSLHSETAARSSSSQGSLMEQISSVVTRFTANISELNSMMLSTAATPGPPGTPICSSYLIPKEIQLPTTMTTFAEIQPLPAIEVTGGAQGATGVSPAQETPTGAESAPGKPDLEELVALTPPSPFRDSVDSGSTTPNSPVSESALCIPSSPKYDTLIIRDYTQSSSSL

As usually defined, the EC50 is the midpoint of the concentration-response curve. Low readings indicate greater potency, high ones weaker potency. `O=C(c1ccc(F)cc1)N1CCC[C@H](c2nc(-c3ccc(F)cc3)no2)C1` [ADX47273] yielded an EC50 on mGluR5 [1] of 0.108 ± 0.041 µM.
On mGluR5 [2], `NC(C(=O)O)c1cc(O)cc(O)c1` (centres unmarked) [DHPG] showed an EC50 of 8 ± 1.6 µM.

The values are drawn from PMC2884290 (Neuropsychopharmacology : official publication of the …, 2009).
